A word on the IC50: it is the midpoint of a concentration-inhibition curve. A high value points to weaker potency.

The structures appear in SMILES notation.

The subject of the test is Kv2.1 channel. The experiment in a line: whole-cell patch clamp in CHO-Kv2.[…] cells. It is filed as cell-based. (In patch-clamp work, channel activity is measured electrically.)

As for `CCN(CC)CCOC(=O)C(c1ccccc1)C1CCCCC1` (stereo not shown) [Dfe, drofenine], the concentration for half-maximal inhibition (IC50) was 9.53 µM.

Source of the values: publication PMC7559245 (iScience, 2020).
